Where two headings read alike, the source gives them in different places.
Key:
[1] = tested on: T. gondii RH strain (RH-Tub-eYFP) tachyzoites; assay: microbe, parasite or virus in culture; assay type: cell-based, Toxoplasma gondii; settings: for percent parasite growth at 2 µg/mL: Toxoplasma gondii
[2] = tested on: P. falciparum 3D7 parasites; assay: P. falciparum growth inhibition assay, 2-cycle (120 h treatment), delayed-death screen and dose-response; assay type: cell-based, Plasmodium falciparum; settings: for activity at 2 µg/mL: Plasmodium falciparum, 3D7
[3] = tested on: P. falciparum 3D7 parasites; assay: P. falciparum growth inhibition assay, 1-cycle (72 h treatment), SYBR DNA staining (library screen at 2 μg/mL and dose-response); assay type: cell-based, Plasmodium falciparum; settings: for activity at 2 µg/mL: Plasmodium falciparum, 3D7
[4] = T. gondii, 72 h, screen at 2 μg/mL, replicate 1
[5] = T. gondii, 72 h, screen at 2 μg/mL, replicate 2
[6] = P. falciparum, 120 h, screen at 2 μg/mL, replicate 1
[7] = P. falciparum, 120 h, screen at 2 μg/mL, replicate 2
[8] = P. falciparum, 72 h, screen at 2 μg/mL, replicate 1
[9] = P. falciparum, 72 h, screen at 2 μg/mL, replicate 2
[10] = T. gondii, 72 h, 2 μg/mL, values are growth (% of control)
[11] = T. gondii, 72 h, parasite screen at 2 μg/mL, % growth, replicate 1
[12] = T. gondii, 72 h, parasite screen at 2 μg/mL, % growth, replicate 2
[13] = P. falciparum 3D7, 120 h, parasite screen at 2 μg/mL, % growth, replicate 1
[14] = P. falciparum 3D7, 120 h, parasite screen at 2 μg/mL, % growth, replicate 2
[15] = P. falciparum 3D7, 72 h, parasite screen at 2 μg/mL, % growth, replicate 1
[16] = P. falciparum 3D7, 72 h, parasite screen at 2 μg/mL, % growth, replicate 2
[17] = library screen at 2 μg/mL, 72 h, % growth, replicate 1
[18] = library screen at 2 μg/mL, 72 h, % growth, replicate 2
[19] = active against the parasite at 2 μg/mL, no anti-tumour (NS-1) or cytotoxic (fibroblast) activity at 5 μg/mL

## CC[C@H]1OC(=O)C[C@@H](O)[C@H](C)[C@@H](O[C@@H]2O[C@H](C)[C@@H](O)[C@H](N(C)C)[C@H]2O)[C@@H](CCN2C[C@H](C)C[C@H](C)C2)C[C@@H](C)C(=O)/C=C/C(C)=C/[C@@H]1CO[C@@H]1O[C@H](C)[C@@H](O)[C@@H](OC)[C@H]1OC.O=P(O)(O)O [Tilmicosin phosphate, reference compound]
[1]; [4]
  Tg_72h_%Growth_Rep1: 41.21%
[1]; [5]
  Tg_72h_%Growth_Rep2: 38.33%
[2]; P. falciparum, 2 μg/mL, 120 h
  2) Growth (%) at 120 h: 7.83%
[2]; [6]
  Pf_120h_%Growth_Rep1: 10.28%
[2]; [7]
  Pf_120h_%Growth_Rep2: 5.38%
[2]; P. falciparum, growth at 72 h / growth at 120 h, 2 μg/mL
  3) Fold change (72 h/120 h): 2.8
[3]; P. falciparum, 2 μg/mL, 72 h
  1) Growth (%) at 72 h: 22.07%
[3]; P. falciparum, 72 h, 2 μg/mL, mean of both replicates, growth (% of control)
  Mean: 22.07
[3]; [8]
  Pf_72h_%Growth_Rep1: 4.49%
[3]; [9]
  Pf_72h_%Growth_Rep2: 39.64%

## CC[C@H]1CCC[C@H](O)[C@@H](C)C(=O)C2=C[C@@H]3[C@@H](C=C[C@@H]4C[C@@H](O[C@@H]5O[C@@H](C)[C@H](OC)[C@@H](OC)[C@H]5OC)C[C@@H]34)[C@@H]2CC(=O)O1 [Spinosyn A pseudoaglycone]
[1]; T. gondii, 72 h, 2 μg/mL, mean of both replicates, growth (% of control)
  Mean: 30.09
[1]; [10]
  Replicate 1: 50.49
  Replicate 2: 9.69
[1]; T. gondii, 72 h, parasite screen 2 μg/mL, % growth, replicate 1
  Tg_72h_%Growth_Rep1: 50.49%
[1]; T. gondii, 72 h, parasite screen 2 μg/mL, % growth, replicate 2
  Tg_72h_%Growth_Rep2: 9.69%
[2]; P. falciparum, 120 h, parasite screen 2 μg/mL, % growth, replicate 1
  Pf_120h_%Growth_Rep1: 17.26%
[2]; P. falciparum, 120 h, parasite screen 2 μg/mL, % growth, replicate 2
  Pf_120h_%Growth_Rep2: 10.80%
[3]; 3D7, 72 h treatment, mean ± S.D., n ≥ 3, read-out: IC50 (μM), P. falciparum
  IC50: > 1 µM
[3]; P. falciparum, 72 h, parasite screen 2 μg/mL, % growth, replicate 1
  Pf_72h_%Growth_Rep1: 8.11%
[3]; P. falciparum, 72 h, parasite screen 2 μg/mL, % growth, replicate 2
  Pf_72h_%Growth_Rep2: -6.27%

## C[C@H]1NC(=O)[C@@H]2CCCN2C1=O [Cyclo(D-Ala-L-Pro)]
[1]; [4]
  Tg_72h_%Growth_Rep1: 121.18%
[1]; [5]
  Tg_72h_%Growth_Rep2: 102.00%
[2]; [6]
  Pf_120h_%Growth_Rep1: 102.13%
[2]; [7]
  Pf_120h_%Growth_Rep2: 92.71%
[3]; [8]
  Pf_72h_%Growth_Rep1: 84.19%
[3]; [9]
  Pf_72h_%Growth_Rep2: 89.96%

## COc1cccc2oc3c4c(cc(OC)c3c(=O)c12)O[C@H]1OC=C[C@@H]41 [BIA-M1214]
[1]; [11]
  Tg_72h_%Growth_Rep1: 111.85%
[1]; [12]
  Tg_72h_%Growth_Rep2: 93.41%
[2]; [13]
  Pf_120h_%Growth_Rep1: 94.17%
[2]; [14]
  Pf_120h_%Growth_Rep2: 84.03%
[3]; [15]
  Pf_72h_%Growth_Rep1: 80.14%
[3]; [16]
  Pf_72h_%Growth_Rep2: 43.63%

## COC[C@H]1OC(=O)c2coc3c2[C@@]1(C)C1=C(C3=O)[C@@H]2CCC(=O)[C@@]2(C)C[C@H]1OC(C)=O [Wortmannin]
[1]; T. gondii, 72 h, screen at 2 μg/mL, replicate 1, read-out: Tg_72h_%Growth_Rep1
  percent parasite growth at 2 µg/mL: 97.3%
[1]; T. gondii, 72 h, screen at 2 μg/mL, replicate 2, read-out: Tg_72h_%Growth_Rep2
  percent parasite growth at 2 µg/mL: 76.4%
[2]; P. falciparum, 120 h, screen at 2 μg/mL, replicate 1, read-out: Pf_120h_%Growth_Rep1
  activity at 2 µg/mL: 109%
[2]; P. falciparum, 120 h, screen at 2 μg/mL, replicate 2, read-out: Pf_120h_%Growth_Rep2
  activity at 2 µg/mL: 96.5%
[3]; P. falciparum, 72 h, screen at 2 μg/mL, replicate 1, read-out: Pf_72h_%Growth_Rep1
  activity at 2 µg/mL: 88.8%
[3]; P. falciparum, 72 h, screen at 2 μg/mL, replicate 2, read-out: Pf_72h_%Growth_Rep2
  activity at 2 µg/mL: 119%

## CCC1(C2OC(C3OC(O)(CO)C(C)CC3C)CC2C)CCC(C2(C)CCC3(CC(O)C(C)C(C(C)C(OC)C(C)C(=O)O)O3)O2)O1 (stereo not shown) [BIA-M1303]
[1]; [11]
  Tg_72h_%Growth_Rep1: 1.84%
[1]; [12]
  Tg_72h_%Growth_Rep2: 2.05%
[2]; [13]
  Pf_120h_%Growth_Rep1: 3.05%
[2]; [14]
  Pf_120h_%Growth_Rep2: 14.66%
[3]; [15]
  Pf_72h_%Growth_Rep1: 1.29%
[3]; [16]
  Pf_72h_%Growth_Rep2: -3.52%

## CC(/C=C/[C@@]1(C)[C@H](C)CCC(=O)[C@@H]1C)=C\Cc1c(O)c(Cl)c(C)c(C=O)c1O [Ascochlorin]
[1]; 72 h, library screen at 2 μg/mL, 72 h, % growth, replicate 1, read-out: Tg_72h_%Growth_Rep1
  percent parasite growth at 2 µg/mL: 69.4%
[1]; 72 h, library screen at 2 μg/mL, 72 h, % growth, replicate 2, read-out: Tg_72h_%Growth_Rep2
  percent parasite growth at 2 µg/mL: 87.7%
[2]; library screen at 2 μg/mL, 120 h, % growth, replicate 1, read-out: Pf_120h_%Growth_Rep1
  activity at 2 µg/mL: 141%
[2]; library screen at 2 μg/mL, 120 h, % growth, replicate 2, read-out: Pf_120h_%Growth_Rep2
  activity at 2 µg/mL: 86.1%
[3]; library screen at 2 μg/mL, 72 h, % growth, replicate 1, read-out: Pf_72h_%Growth_Rep1
  activity at 2 µg/mL: 79.8%
[3]; library screen at 2 μg/mL, 72 h, % growth, replicate 2, read-out: Pf_72h_%Growth_Rep2
  activity at 2 µg/mL: 84.8%

## CCCCCC[C@H]1C(=O)O[C@H](C)[C@@H](O)/C=C/C=C/C=C/C=C/C=C(\C)[C@@H](O)C[C@H](O)C[C@H](O)C[C@H](O)C[C@H](O)C[C@H](O)C[C@@H]1O [Filipin II]
[1]; [17]
  Tg_72h_%Growth_Rep1: 129.59%
[1]; [18]
  Tg_72h_%Growth_Rep2: 103.40%
[2]; library screen at 2 μg/mL, 120 h, % growth, replicate 1
  Pf_120h_%Growth_Rep1: 90.65%
[2]; library screen at 2 μg/mL, 120 h, % growth, replicate 2
  Pf_120h_%Growth_Rep2: 90.94%
[3]; [17]
  Pf_72h_%Growth_Rep1: 85.18%
[3]; [18]
  Pf_72h_%Growth_Rep2: 87.84%

## CC(=O)O[C@@H]1/C=C\[C@@](C)(O)C(=O)[C@@H](C)C/C=C\[C@H]2[C@H](O)C(C)=C(C)[C@H]3C(Cc4ccccc4)NC(=O)[C@]132 (stereo partly shown) [cytochalasin C]
[1]; [4]
  Tg_72h_%Growth_Rep1: 0.57%
[1]; [5]
  Tg_72h_%Growth_Rep2: 15.53%
[1]; [19]
  selectivity for T. gondii in the screens: active selectively against P. falciparum and T. gondii
[2]; [6]
  Pf_120h_%Growth_Rep1: 12.52%
[2]; [7]
  Pf_120h_%Growth_Rep2: 10.45%
[3]; [8]
  Pf_72h_%Growth_Rep1: 7.71%
[3]; [9]
  Pf_72h_%Growth_Rep2: 8.08%
[3]; [19]
  selectivity for P. falciparum in the screens: active selectively against P. falciparum and T. gondii
